According to patent US11207301B2, “Sphingosine 1 phosphate receptor agonists for neuroprotection” (RECEPTOS LLC, priority 2017, dated 2021):

Tests used:
Format in all cases: cell-based
[1] = system: ERK phosphorylation in primary human astrocytes; experiment: ERK phosphorylation in primary human cortical astrocytes (AlphaLISA SureFire Ultra); conditions: Astrocyte, 10 min, 10-minute exposure, n=3-5
Description: (§1) For the experiments using mouse and human primary astrocytes, ten-point concentration-response curves (90 nM-4.57 pM or 30 nM-1.52 pM) were generated for AKT and/or ERK phosphorylation in primary human and mouse cortical astrocytic cultures in response to a 10-minute treatment with ozanimod, Compound 3, Compound 1, or FTY720-P. AKT and ERK phosphorylation were quantified using AlphaLISA SureFire Ultra Assay kits and the EnVision Plate Reader. AKT and ERK phosphorylation within treated astrocytes were expressed as the mean change in signal intensity compared to the dimethyl sulfoxide (DMSO) vehicle and the half maximal effective concentration (EC50) was determined using non-linear regression.
Primary human astrocytes were purchased from ScienCell Research Laboratories, Inc. and cultured according to the supplier's protocol. The astrocytes were obtained from the human cerebral cortex, cryopreserved at passage one, and delivered frozen. The frozen vials of cells were gently thawed in a 37° C. water bath. Once the contents of the vial were completely thawed, the cell solution was dispensed into a poly-L-lysine (PLL) coated T75 tissue culture flask with 16 mL of human Astrocyte Media, (ScienCell Research Laboratories, Inc.) and incubated at 37° C. 5% CO2. Once the human astrocytes had reached confluency in the T75 flask, they were detached using trypsin/EDTA 0.25%, pelleted at 300×g, split into two PLL coated T225 tissue culture flasks in 40 mL of astrocyte media, and incubated at 37° C. 5% CO2. Once the astrocytes reached confluency in the T225 flasks, they were detached using trypsin/EDTA 0.25% solution, pelleted at 300×g, plated into poly-D-lysine (PDL) coated 96-well plates at a density of 10,000 cells per well in 200 μL human Astrocyte Media, and incubated at 37° C. 5% CO2. Half of the media was replenished every 3-4 days. After 5-7 days of incubation, the P2 human astrocyte plates were utilized for the pERK and pAKT assays.
(§2) Cell lysis and detection of pERK were performed according to the PerkinElmer AlphaLISA SureFire Ultra p-ERK1/2 (Thr202/TYR 204) assay protocol. Astrocytes were lysed in the 96-well plate following a 10 minute incubation with compounds with shaking at RT. The astrocytic lysates (10 μL/well) were transferred into a 384-well OptiPlate. As specified by the assay protocol, an acceptor bead mix and a donor bead mix (5 μL/well for each) were added to the plate under subdued light. Plates were sealed with adhesive plate seals and incubated in the dark for 2 hours at RT. The plates were read on the EnVision Plate Reader to assess the pERK levels.
(§3) The AKT and ERK phosphorylation data, collected by a Perkin Elmer EnVision Microplate Reader, was analyzed by non-linear regression (GraphPad Prism, version 7.03) to determine the EC50 values.

[2] = system: AKT phosphorylation in primary rat astrocytes; experiment: AKT phosphorylation in primary rat astrocytes (MSD pAKT assay); conditions: Astrocyte, 10 min, 10-minute exposure, mean of n=4
Description: (§4) For the experiments using rat primary astrocytes, eight-point concentration-response curves were generated for AKT and ERK phosphorylation in primary rat astrocytes cultures in response to a 10-minute treatment with ozanimod (100 nM-46 pM), Compound 3 (10 nM-5 pM), Compound 1 (10 nM-5 pM), or FTY720-P (10 nM-5 pM). Phosphorylation of AKT and ERK was quantified using Meso Scale Discovery assay kits (MSD Mutli-Spot Phopho-AKT (Ser473) Assay Kit and MSD Multi-Spot MAP Kinase Phosphoprotein Assay Whole Cell Lysate Kit) and imaging platform. AKT and ERK phosphorylation within treated astrocytes were assessed as the mean change in signal intensity compared to DMSO vehicle and the half maximal effective concentration (EC50) was determined using non-linear regression.
(§5) Embryonic day18 (E18) rat cortices were purchased from BrainBits LLC. (Springfield, Ill.) and were cultured according to the supplier's protocol. Briefly, cortices were incubated at 37° C. for 10 minutes in activated papain solution before trituration in hibernation medium containing B27 supplement using a modified siliconized glass Pasteur pipette. The cell suspension was centrifuged at 1100×g for 1 minute at room temperature (RT). The cell pellet was then resuspended in NbAstro medium (BrainBits LLC.) and the live cell density was assessed using a cell counter. Primary cells were plated at a density of 7500 cells/cm2 in T75 tissue culture flasks coated with poly-D-lysine (PDL) in a total volume of 12 mL of NbAstro media, and incubated for 10-14 days at 37° C. 5% CO2. After 10-14 days, primary astrocytes in passage 0 (P0) that had reached confluency in the T75 flasks were detached using TrypLE detachment reagent, pelleted at 300×g, and plated into poly-d-lysine coated T225 flasks in 20 mL of NbAstro media, and incubated for another 7 days at 37° C. 5% CO2. After 7 days, primary P1 astrocytes in confluent T225 flasks were detached using TrypLE detachment reagent, pelleted at 300×g, and plated intopoly-d-lysine coated 96-well plates at 10,000 cells per well in 200 μL of NbAstro media, and incubated for 7 days at 37° C. 5% CO2. After 7 days, P2 primary astrocytes were utilized for pAKT and pERK assays.
(§6) The pAKT (phosphorylated AKT) assay was performed according to the manufacturer's protocol. Briefly, MSD pAKT plates were blocked for 1-2 hours by adding 150 μL of blocker A prepared in 1× Tris wash buffer. […] Following antibody incubation, plates were washed three times with 150 μL of 1× Tris wash buffer and 1× read buffer (150 μL/well) was added. Finally, plates were read in the MSD imager platform to assess pAKT levels.
(§7) AKT and ERK phosphorylation data were analyzed by non-linear regression (GraphPad Prism, version 6) to determine the EC50 values.

[3] = system: ERK phosphorylation in primary rat astrocytes; experiment: ERK phosphorylation in primary rat astrocytes (MSD pERK assay); conditions: Astrocyte, 10 min, 10-minute exposure, mean of n=3
Description: as §4, §5
as §6, with “The pERK” for “The pAKT”, “(phosphorylated ERK)/pMAPkinase” for “(phosphorylated AKT)”, “MSD pERK/pMAPkinase” for “MSD pAKT”, “Finally, the” for “Finally,”, “assess the pERK” for “assess pAKT”
as §7

[4] = system: AKT phosphorylation in primary mouse astrocytes; experiment: AKT phosphorylation in primary mouse cortical astrocytes (AlphaLISA SureFire Ultra); conditions: Astrocyte, 10 min, 10-minute exposure, mean of n=3
Description: as §1
Timed pregnant (E16) C57BL/6J female mice arrive to the test facility on a weekly basis and were housed and cared for according to appropriate protocols for this model. Primary mouse cortical astrocytes are harvested from P0-P2 pups. The newly born animals were deeply anesthetized on ice, decapitated, and the brains were rapidly removed and stored in ice-cold NbAstro media (BrainBits, LLC). Cells were dissociated from freshly dissected cortices by mechanical disruption in the presence of trypsin and DNase. Cells were put into a PDL coated T75 tissue culture flask containing 16 mL NbAstro Media and incubated at 37° C. 5% CO2. Once the mouse astrocytes had reached confluency in the T75 flask, they were detached using TripLE detachment reagent, pelleted at 300×g, expanded into two T225 PDL coated tissue culture flasks containing 40 mL of NbAstro and incubated at 37° C. 5% CO2. Once the astrocytes reached confluency in the T225 flasks they were detached using TrypLE detachment reagent, pelleted at 300×g, plated into PDL coated 96-well plates at a density of 10,000 cells per well in 200 μL NbAstro and incubated at 37° C. 5% CO2. Half of the media was replenished every 3-4 days. After 5-7 days of incubation, the P2 mouse astrocyte plates were utilized for the pERK and pAKT assays.
as §2, with “pAKT” for “pERK”, “pAKT1/2/3 ([…])” for “p-ERK1/2 (Thr202/TYR 204)”, “room temperature (RT).” for “RT.”, “Plates were sealed with adhesive plate seals and incubated in the dark for 2 hours at RT.” left out
as §3

EC50 [1]: 0.5 nM | EC50 [2]: 0.23 nM | EC50 [3]: 0.11 nM | EC50 [4]: 0.13 nM
Structure (SMILES): CC(C)Oc1ccc(-c2nc(-c3cccc4c3CCC4NCC(=O)O)no2)cc1C#N (stereo not shown) [Compound 3]
